Laboratory results from patent US8637516B2 (IRM LLC, priority 2010, dated 2014).
Where two headings read alike, the source gives them in different places.

Key:
[1] = Rat PK (PO 10 mg/kg, IV 3 mg/Kg); format: in vivo; conditions: for F / clearance / half-life / Vd / AUC / Cmax: Rat; for F / AUC / Cmax: PO 10 mg/kg, MC/Tween 80 suspension; for F / clearance / half-life / Vd: IV 3 mg/Kg; for clearance / half-life / Vd / AUC / Cmax: in vivo; for Vd: read-out: Vss
[2] = tested on: parental Ba/F3 cells; assay: Proliferation of parental (untransformed, wt) Ba/F3 cells (BAF3/WT); format: cell-based, murine; conditions: Mus musculus, Table 1, parental cells with IL3, 48 hours
Summary of the method: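 Parental Ba/F3 cells, maintained with mouse IL-3, were plated at 700 cells/well with compound (0.17 nM to 10 uM, 3-fold dilutions). After 48 h at 37 °C, proliferation was read by Bright-Glo luminescence.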

[3] = target: T1, Ba/F3 cells transformed with human Tel-TrkA (Homo sapiens, UniProt P04629); assay: Proliferation of Ba/F3 cells transformed with human Tel-TrkA (Ba/F3 Tel-TrkA); format: cell-based
T1 construct: expressed in transfected cells; host or cells: Ba/F3 murine hematopoietic progenitor cells (luciferase expressing); the other entry of the earlier key: ETV6 (P41212, Transcription factor ETV6)
T1 sequence (P04629 510-796 limits assumed): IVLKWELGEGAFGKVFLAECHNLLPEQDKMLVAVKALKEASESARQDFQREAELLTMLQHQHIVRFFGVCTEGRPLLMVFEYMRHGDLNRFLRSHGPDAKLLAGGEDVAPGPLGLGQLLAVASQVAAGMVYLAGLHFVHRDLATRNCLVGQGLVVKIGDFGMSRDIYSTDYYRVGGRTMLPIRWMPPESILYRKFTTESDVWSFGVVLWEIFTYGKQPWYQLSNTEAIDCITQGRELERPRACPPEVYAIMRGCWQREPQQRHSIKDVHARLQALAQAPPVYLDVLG
Excerpt: Compound dilutions were made in 384 well plates.
The emited luminiscence is quantified using ViewLux (PerkinElmer).

[4] = Table 1, 48 hours, Bright Glo luminescence, read-out: Ba/F3 Tel-TrkA

Row | SMILES | IC50 [3, 4] | IC50 [2] | also measured
1 | CC(=O)Nc1cnc2ccc(N3CCC[C@@H]3c3cc(F)ccc3F)nn12 [reference compound] | – | – | F [1]: 1.5%; clearance [1]: 79.2 mL/min/kg; half-life [1]: 12 min; Vd [1]: 1 L/kg; AUC [1]: 0.087 µM·h; Cmax [1]: 61 nM
2 | CCCS(=O)(=O)N1CCC(NC(=O)c2cnc3ccc(N4CCC[C@@H]4c4cccc(F)c4)nn23)CC1 [X-35] | 26 nM | > 10000 nM | –
3 | COc1cccc(/C=C/C(=O)c2cnc3ccc(N4CCC[C@@H]4c4cccc(F)c4)nn23)n1 [X-131] | 194 nM | 1670 nM | –
4 | O=C(NCC1CCC1)c1cnc2ccc(N3CCC[C@@H]3c3cccc(F)c3)nn12 [X-22] | 47 nM | > 10000 nM | –
5 | CC(NC(=O)c1cnc2ccc(N3CCC[C@@H]3c3cccc(F)c3)nn12)c1ccc(F)cc1 (some centres unmarked) [X-42] | 127 nM | > 9570 nM | –
6 | CC1(C)CCC(CNC(=O)c2cnc3ccc(N4CCC[C@@H]4c4cccc(F)c4)nn23)O1 (some centres unmarked) [X-36] | 120 nM | > 10000 nM | –
7 | COCCONC(=O)c1cnc2ccc(N3CCC[C@H]3c3cccc(F)c3)nn12 [X-148] | 28 nM | > 10000 nM | –
8 | O=C(/C=C/c1cccc(N2CCOCC2)n1)c1cnc2ccc(N3CCC[C@@H]3c3cccc(F)c3)nn12 [X-128] | 174 nM | 1390 nM | –
9 | O=C(NC1CC1)c1cnc2ccc(N3CCC[C@@H]3c3cccc(F)c3)nn12 [X-44] | 11 nM | > 10000 nM | –
10 | [2H]C1([2H])N(c2ccc3ncc(C(N)=O)n3n2)C([2H])(c2cccc(F)c2)C([2H])([2H])C1([2H])[2H] (centres unmarked) [X-13] | 110 nM | > 10000 nM | –
11 | CS(=O)(=O)N1CCC(NC(=O)c2cnc3ccc(N4C[C@@H](F)C[C@@H]4c4cccc(F)c4)nn23)CC1 [X-121] | 2 nM | 5140 nM | –
12 | COC(=O)[C@@H](CO)NC(=O)c1cnc2ccc(N3CCC[C@@H]3c3cccc(F)c3)nn12 [X-98] | 354 nM | > 10000 nM | –
13 | O=C(NCCC1CCCC1)c1cnc2ccc(N3CCC[C@@H]3c3cccc(F)c3)nn12 [X-108] | 191 nM | 6480 nM | –
14 | CNC(=O)c1cnc2ccc(N3CCC[C@@H]3c3cccc(F)c3)nn12 [X-43] | 46 nM | > 10000 nM | –
15 | [2H]C1([2H])CC[C@H](c2cccc(F)c2)N1c1ccc2ncc(C(N)=O)n2n1 [X-11] | 25 nM | > 10000 nM | –
16 | COCCNC(=O)c1cnc2ccc(N3CCC[C@@H]3c3cccc(F)c3)nn12 [X-51] | 67 nM | > 10000 nM | –
17 | CS(=O)(=O)N1CCC(NC(=O)c2cnc3ccc(N4CCC[C@@H]4c4cccc(F)c4)nn23)CC1 [X-71, (R)-6-(2-(3-fluorophenyl)pyrrolidin-1-yl)-N-(1-(methylsulfonyl)piperidin-4-yl)imidazo[1,2-b]pyridazine-3-carboxamide] | 22 nM | > 10000 nM | –

Row | SMILES | IC50 [3, 4] | IC50 [2] | also measured
18 | CS(=O)(=O)N1CC(NC(=O)c2cnc3ccc(N4CCC[C@@H]4c4cccc(F)c4)nn23)C1 [X-68] | 38 nM | > 10000 nM | –
19 | N#Cc1cnc2ccc(N3CCC[C@@H]3c3cccc(F)c3)nn12 [X-2, (R)-6-(2-(3-fluorophenyl)pyrrolidin-1-yl)imidazo[1,2-b]pyridazine-3-carbonitrile] | 268 nM | > 10000 nM | –
20 | CC(=O)N1CC[C@@H](NC(=O)c2cnc3ccc(N4CCC[C@@H]4c4cccc(F)c4)nn23)C1 [X-66] | 737 nM | > 10000 nM | –
21 | NS(=O)(=O)N1CCC(NC(=O)c2cnc3ccc(N4CCC[C@@H]4c4cccc(F)c4)nn23)CC1 [X-29, (R)-6-(2-(3-fluorophenyl)pyrrolidin-1-yl)-N-(1-sulfamoylpiperidin-4-yl)imidazo[1,2-b]pyridazine-3-carboxamide] | 239 nM | > 10000 nM | –
22 | O=C(NCCN1CCCC1=O)c1cnc2ccc(N3CCC[C@@H]3c3cccc(F)c3)nn12 [X-86] | 191 nM | > 10000 nM | –
23 | CCONC(=O)c1cnc2ccc(N3CCCC3c3cccc(F)c3)nn12 (centres unmarked) [X-152, N-ethoxy-6-(2-(3-fluorophenyl)pyrrolidin-1-yl)imidazo[1,2-b]pyridazine-3-carboxamide] | 42 nM | > 10000 nM | –
24 | O=C(NOCCO)c1cnc2ccc(N3CCC[C@@H]3c3cccc(F)c3)nn12 [X-147] | 31 nM | > 10000 nM | –
25 | O=C(NCCN1CCOCC1)c1cnc2ccc(N3CCC[C@@H]3c3cccc(F)c3)nn12 [X-52] | 58 nM | > 10000 nM | –
26 | O=C(NCc1ccc(Cl)nc1)c1cnc2ccc(N3CCC[C@@H]3c3cccc(F)c3)nn12 [X-57] | 190 nM | > 10000 nM | –
27 | O=C(N[C@@H]1CCOC1=O)c1cnc2ccc(N3CCC[C@@H]3c3cccc(F)c3)nn12 [X-100] | 27 nM | > 10000 nM | –
28 | CC(=O)O[C@@H](C)C(=O)N1CCC(NC(=O)c2cnc3ccc(N4CCC[C@@H]4c4cccc(F)c4)nn23)CC1 [X-33] | 105 nM | > 10000 nM | –
29 | O=C(NCCO)c1cnc2ccc(N3CCC[C@@H]3c3cccc(F)c3)nn12 [X-79] | 61 nM | > 10000 nM | –
30 | O=C(NCCO)c1cnc2ccc(N3C[C@@H](F)C[C@@H]3c3cccc(F)c3)nn12 [X-119] | 3 nM | > 10000 nM | –
31 | Fc1cccc([C@H]2CCCN2c2ccc3ncc(Br)n3n2)c1 [X-1, (R)-3-bromo-6-(2-(3-fluorophenyl)pyrrolidin-1-yl)imidazo[1,2-b]pyridazine] | 316 nM | > 10000 nM | –
32 | O=C(NC1CCC1)c1cnc2ccc(N3CCC[C@@H]3c3cccc(F)c3)nn12 [X-46] | 20 nM | > 10000 nM | –
33 | O=C(NCC(F)F)c1cnc2ccc(N3C[C@@H](F)C[C@@H]3c3cccc(F)c3)nn12 [X-114] | 1 nM | 7490 nM | –
34 | CC(C)(C)OC(=O)N1CC(NC(=O)c2cnc3ccc(N4CCC[C@@H]4c4cccc(F)c4)nn23)C1 [X-61] | 144 nM | > 10000 nM | –

Second part, led by results:

Row | IC50 [3, 4] | SMILES | IC50 [2] | also measured
35 | 0.5 nM | NC(=O)c1cnc2ccc(N3C[C@@H](F)C[C@@H]3c3cc(F)ccc3F)nn12 [X-242] | 2450 nM | IC50 ([3]; Table 2, read-out: Ba/F3_Te1-Trk-A): 0.5 nM; F [1]: 28.2%; clearance [1]: 18.4 mL/min/kg; half-life [1]: 74.4 min; Vd [1]: 1.58 L/kg; AUC [1]: 7.09 µM·h; Cmax [1]: 1730 nM; AUC compared with compound #3 of WO2010/033941 ([1]; in words): significant and unexpected increases; Cmax compared with compound #3 of WO2010/033941 ([1]; in words): significant and unexpected increases
36 | 198 nM | NC(=O)c1cnc2ccc(N3C[C@@H](F)C[C@@H]3c3ccc(F)c(F)c3)nn12 [X-240] | > 10000 nM | –
37 | 10 nM | O=C(NO)c1cnc2ccc(N3C[C@@H](F)C[C@@H]3c3cccc(F)c3)nn12 [X-153] | > 10000 nM | –
38 | 194 nM | CCOC(=O)c1cnc2ccc(N3C[C@@H](F)C[C@@H]3c3ccc(F)c(F)c3)nn12 [X-239] | > 10000 nM | –
39 | 132 nM | CO/N=C(/N)c1cnc2ccc(N3CCC[C@@H]3c3cccc(F)c3)nn12 [X-228, (R)-6-(2-(3-fluorophenyl)pyrrolidin-1-yl)-N′-methoxyimidazo[1,2-b]pyridazine-3-carboximidamide] | > 10000 nM | –
40 | 242 nM | NNC(=O)c1cnc2ccc(N3CCC[C@@H]3c3cccc(F)c3)nn12 [X-155] | > 10000 nM | –
41 | 291 nM | N#CCC(=O)Nc1cnc2ccc(N3CCC[C@@H]3c3cccc(F)c3)nn12 [X-184] | > 10000 nM | –
42 | 165 nM | NC(=NO)c1cnc2ccc(N3CCCC3c3cccc(F)c3)nn12 (centres unmarked) [X-226] | > 10000 nM | –
43 | 78 nM | COc1ccc(OCC(=O)Nc2cnc3ccc(N4CCC[C@@H]4c4cccc(F)c4)nn23)cc1 [X-186] | > 10000 nM | –
44 | 600 nM | CCOC(=O)c1cnc2ccc(N3CC(F)(F)C(F)(F)[C@@H]3c3cccc(F)c3)nn12 [X-164, (S)-ethyl 6-(3,3,4,4-tetrafluoro-2-(3-fluorophenyl)pyrrolidin-1-yl)imidazo[1,2-b]pyridazine-3-carboxylate] | > 10000 nM | –
45 | 251 nM | CCOC(=O)c1cnc2ccc(N3CCC(=O)C3c3cccc(F)c3)nn12 (centres unmarked) [X-159, ethyl 6-(2-(3-fluorophenyl)-3-oxopyrrolidin-1-yl)imidazo[1,2-b]pyridazine-3-carboxylate] | > 10000 nM | –
46 | 64 nM | CC(C)NC(=O)c1ccc(F)cc1C1CC(F)(F)CN1c1ccc2ncc(C(N)=O)n2n1 (centres unmarked) [X-250] | > 10000 nM | –
47 | 93 nM | CCOC(=O)c1cnc2ccc(N3CCC[C@@H]3c3cccc(F)c3)nn12 [X-158, (R)-ethyl 6-(2-(3-fluorophenyl)pyrrolidin-1-yl)imidazo[1,2-b]pyridazine-3-carboxylate] | > 10000 nM | –
48 | 2 nM | CCOC(=O)c1cnc2ccc(N3C[C@@H](F)C[C@@H]3c3cc(F)cc(C#N)c3)nn12 [X-243] | > 10000 nM | –
49 | 229 nM | COCCC(=O)Nc1cnc2ccc(N3CCC[C@@H]3c3cccc(F)c3)nn12 [X-173] | > 10000 nM | –
50 | 18 nM | COC(=O)NC(=O)c1cnc2ccc(N3CC(F)(F)C[C@@H]3c3cccc(F)c3)nn12 [X-249] | > 10000 nM | –
